The text below walks through data of patent EP4653444A1, “FUSED TRICYCLIC COMPOUND AS KINASE INHIBITOR” (Hangzhou Innogate Pharma Co., Ltd., priority 2023, dated 2024).

A short description of series [1]: Pharmacokinetic study in rats. To be noted: rat, plasma, po, 3 mg/kg.
Experimental: Pharmacokinetic parameters were calculated by statistical moment method using WinNonLin 8.0 software, mainly including Tmax, T1/2, Cmax and AUC0-24h.
Animals: Three male SD rats weighing 200-220 g were used. After purchase, they were housed in the laboratory animal center for 2 days before experiment. […] Blood samples were collected at scheduled time points after oral gavage.
Vehicle: 0.4% ethanol + 0.4% Tween 80 + 99.2% (0.5% methylcellulose M450). Preparation of oral gavage solution: The compound was accurately weighed and dissolved in vehicle by ultrasonication for 5 min at room temperature to prepare 0.3 mg/mL drug solution.
Single compound administration was also used to study pharmacokinetics in rats.
Blood sample collection: After oral gavage, blood samples were collected from orbital sinus at 0.25, 0.5, 1, 2, 4, 8, 10 and 24 h. 50 µL plasma was mixed with 200 µL acetonitrile (containing 2 ng/mL verapamil as internal standard). The mixture was vortexed for 3 min, then centrifuged at 20000 rcf for 10 min at 4 °C. The supernatant was analyzed by LC-MS/MS.
Standard curves were established by accurately weighing and preparing compounds at different concentrations for mass spectrometric quantification. Compound concentrations in plasma samples were determined based on standard curves to obtain concentration-time profiles. All measurement data were collected and processed by relevant software. Pharmacokinetic parameters (including Tmax, T1/2, Cmax and AUC0-24h) were calculated by statistical moment method.
A further series has as its target FAK kinase (Homo sapiens, UniProt Q05397). The series is described as follows: FAK kinase activity inhibition assay, method A (HTRF). It counts as biochemical. Here is the method:
The HTRF method was used to evaluate the inhibitory activity of the compounds against FAK kinase. […]. The reaction conditions were: FAK kinase at 0.1 ng/µL; ATP 10 µM; substrate concentration 1 µM. Compounds were serially diluted in DMSO and shaken on a shaker for 20 minutes. Prepare 2× kinase using 1× reaction buffer. Transfer 25 nL compound to a 384-well plate using Echo 655. Add 2.5 µL kinase per well. Seal the plate with sealing film, centrifuge at 1000 rpm for 60 seconds, and incubate at 25°C for 12 hours. Prepare 2× ATP/substrate mix using 1× enzyme reaction buffer and add 2.5 µL 2× ATP/substrate mix per well. Seal the plate with sealing film, centrifuge at 1000 rpm for 60 seconds, and incubate at 25°C for 50 minutes. Prepare 2×XL665 & antibody solution using HTRF detection buffer, and add 5 µL per well. Incubate at 25°C for 60 minutes. Read fluorescence at 620 nm (Cryptate) and 665 nm (XL665). Calculate the ratio per well (Ratio_665/620 nm). % Inhibition = 100% - [(Compound Ratio - Positive Control Ratio)/ (Negative Control Ratio - Positive Control Ratio)] × 100%. IC50 values (half-maximal inhibitory concentration) were calculated by nonlinear regression using GraphPad Prism 7.0. Y = Bottom + (Top - Bottom)/ (1 + 10^ ((LogIC50 - X) × Hill Slope)), where X is the log of compound concentration and Y is the % inhibition.
Background: TR-FRET usually uses a lanthanide donor and a delayed reading to cut background.

pIC50: −log10 of the molar value. Where two headings read alike, the source gives them in different places.

Chain of FAK kinase (Q05397 whole entry): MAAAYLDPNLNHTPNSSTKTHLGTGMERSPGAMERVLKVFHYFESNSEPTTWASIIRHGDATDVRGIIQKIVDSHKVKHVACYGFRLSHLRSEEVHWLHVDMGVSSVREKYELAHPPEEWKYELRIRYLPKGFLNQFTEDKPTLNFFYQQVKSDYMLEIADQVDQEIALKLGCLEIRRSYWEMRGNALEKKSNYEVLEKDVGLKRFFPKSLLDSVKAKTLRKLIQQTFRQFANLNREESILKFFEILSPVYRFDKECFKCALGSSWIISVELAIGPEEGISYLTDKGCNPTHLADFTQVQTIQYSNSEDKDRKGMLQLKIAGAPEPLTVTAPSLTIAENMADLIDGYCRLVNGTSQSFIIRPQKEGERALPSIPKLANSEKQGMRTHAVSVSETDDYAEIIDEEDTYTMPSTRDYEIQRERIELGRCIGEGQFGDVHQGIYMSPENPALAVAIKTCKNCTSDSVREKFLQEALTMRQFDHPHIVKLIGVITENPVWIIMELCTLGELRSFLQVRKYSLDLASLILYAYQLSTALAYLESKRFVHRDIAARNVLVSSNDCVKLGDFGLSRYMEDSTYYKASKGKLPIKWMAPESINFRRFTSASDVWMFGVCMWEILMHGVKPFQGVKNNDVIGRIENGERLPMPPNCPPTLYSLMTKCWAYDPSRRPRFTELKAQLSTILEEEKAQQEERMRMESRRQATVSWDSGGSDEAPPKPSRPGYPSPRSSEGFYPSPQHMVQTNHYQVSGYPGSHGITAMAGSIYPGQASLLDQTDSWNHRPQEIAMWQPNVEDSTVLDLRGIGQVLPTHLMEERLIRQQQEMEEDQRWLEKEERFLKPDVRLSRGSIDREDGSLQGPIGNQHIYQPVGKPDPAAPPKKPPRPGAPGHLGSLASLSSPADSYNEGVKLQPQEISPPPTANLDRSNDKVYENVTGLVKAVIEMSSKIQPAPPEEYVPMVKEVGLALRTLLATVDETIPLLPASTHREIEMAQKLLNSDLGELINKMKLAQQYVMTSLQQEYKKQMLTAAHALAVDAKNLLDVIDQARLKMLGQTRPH

Usually AUC(0-t) stands for exposure summed from dosing to a finite time, without extrapolation to infinity. Low values mean low exposure, high ones high exposure. A word on the Cmax: it is the maximum level reached in the sampled fluid or tissue. A word on the Tmax: it is the time at which the peak concentration occurs. What is called half-life is the time needed for the level to fall by half in the phase considered. High values mean slow loss, low ones fast loss. What is called pIC50 is the negative decadic logarithm of the IC50, by convention in mol/L. Regarding `COc1cc2c(cc1Nc1ncc(C(F)(F)F)c(CCc3ccccc3CC(N)=O)n1)OC[C@H]1CN(C3CCN(C)CC3)CCN21` [Compound B2R], in series [1], the AUC(0-t) at 24 h amounted to 880 ng·h/mL, the Cmax turned out to be 76.4 ng/mL, the Tmax was 4.7 h and the half-life is 7.4 h. For the same compound, the pIC50 at FAK kinase was above 9.30.
Turning to `COc1cc2c(cc1Nc1ncc(C(F)(F)F)c(CCc3ccccc3CC(N)=O)n1)OC[C@H]1CNCCN21` [Compound B3R], in series [1], the AUC(0-t) at 24 h stood at 690 ng·h/mL, the concentration peaked (Cmax) at 68.9 ng/mL, the Tmax worked out at 3.3 h and the half-life is 7.9 h. For the same compound, the pIC50 on FAK kinase (Table 2, HTRF, ATP 10 µM, read-out: FAK (method A) (IC50)) was above 9.30.
Consider `COc1cc2c(cc1Nc1ncc(C(F)(F)F)c(CCc3ccccc3CC(N)=O)n1)OC[C@H]1CN(C3CCOCC3)CCN21` [Compound B4R], for which, in series [1], the AUC(0-t) at 24 h is 568 ng·h/mL, the highest level (Cmax) was 200 ng/mL, the Tmax came out at 0.8 h and the half-life was 1.5 h. In addition, the pIC50 against FAK kinase was above 9.30.
As to `CCN1CCN2c3cc(OC)c(Nc4ncc(C(F)(F)F)c(CCc5ccccc5CC(N)=O)n4)cc3OC[C@H]2C1` [Compound B5R], in series [1], the AUC(0-t) at 24 h turned out to be 685 ng·h/mL, the highest level (Cmax) was 118 ng/mL, the Tmax was determined as 2 h and the half-life was 2.8 h. Also, the pIC50 against FAK kinase is above 9.30.
As to `COc1cc2c(cc1Nc1ncc(C(F)(F)F)c(CCc3ccccc3CC(N)=O)n1)OC[C@H]1CN(C3CC3)CCN21` [Compound B6R], in series [1], the AUC(0-t) at 24 h was 905 ng·h/mL, the Cmax came to 299 ng/mL, the Tmax is 1 h and the half-life was 1.3 h. This compound had a pIC50 at FAK kinase above 9.00.
For `COc1cc2c(cc1Nc1ncc(C(F)(F)F)c(CCc3ccccc3CC(N)=O)n1)OC[C@H]1CN(C(C)=O)CCN21` [Compound B7R], in that order: 1430 ng·h/mL, 390 ng/mL, 2 h, 1.2 h and above 9.30.
On the same counts, the results for `COc1cc2c(cc1Nc1ncc(C(F)(F)F)c(CCc3ccccc3CC(N)=O)n1)OC[C@H]1CN(S(C)(=O)=O)CCN21` [Compound B8R] are 133 ng·h/mL, 39.3 ng/mL, 1.7 h, 1.5 h and above 9.30.
On to `COc1cc2c(cc1Nc1ncc(C(F)(F)F)c(CCc3ccccc3CC(N)=O)n1)OC[C@H]1CN(C3CN(C)C3)CCN21` [Compound B9R], for which, in series [1], the AUC(0-t) at 24 h was found to be 368 ng·h/mL, the highest level (Cmax) was 61.8 ng/mL, the Tmax amounted to 3.3 h and the half-life is 2.6 h. On FAK kinase, the pIC50 is above 9.30.
